Measured values from publication doi:10.1101/2021.01.25.428124v1 (biorxiv, 2021).

Molecular target: Methyl-coenzyme M reductase (MCR-I), Ni(I)-MCRred1 (Methanothermobacter marburgensis, UniProt P11558+P11560+P11562)
Test: biochemical
Format: binding

Methyl-coenzyme M reductase (MCR-I), Ni(I)-MCRred1, sequence (P11558 2-550 limits assumed): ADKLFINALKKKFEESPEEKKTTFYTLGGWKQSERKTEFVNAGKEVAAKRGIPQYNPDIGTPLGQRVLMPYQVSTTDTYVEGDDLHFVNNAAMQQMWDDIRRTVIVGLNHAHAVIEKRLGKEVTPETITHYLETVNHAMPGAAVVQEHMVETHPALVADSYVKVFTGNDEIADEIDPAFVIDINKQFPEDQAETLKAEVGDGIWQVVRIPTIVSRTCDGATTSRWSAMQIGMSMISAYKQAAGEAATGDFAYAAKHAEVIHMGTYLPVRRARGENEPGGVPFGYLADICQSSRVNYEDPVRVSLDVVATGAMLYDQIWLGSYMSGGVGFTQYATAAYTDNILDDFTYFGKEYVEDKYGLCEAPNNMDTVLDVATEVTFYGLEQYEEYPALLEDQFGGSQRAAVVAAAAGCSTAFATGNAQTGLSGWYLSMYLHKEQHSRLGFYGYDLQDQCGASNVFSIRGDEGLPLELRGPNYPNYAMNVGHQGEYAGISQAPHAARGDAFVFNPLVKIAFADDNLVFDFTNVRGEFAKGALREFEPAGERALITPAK
Methyl-coenzyme M reductase (MCR-I), Ni(I)-MCRred1, sequence (P11560 2-443 limits assumed): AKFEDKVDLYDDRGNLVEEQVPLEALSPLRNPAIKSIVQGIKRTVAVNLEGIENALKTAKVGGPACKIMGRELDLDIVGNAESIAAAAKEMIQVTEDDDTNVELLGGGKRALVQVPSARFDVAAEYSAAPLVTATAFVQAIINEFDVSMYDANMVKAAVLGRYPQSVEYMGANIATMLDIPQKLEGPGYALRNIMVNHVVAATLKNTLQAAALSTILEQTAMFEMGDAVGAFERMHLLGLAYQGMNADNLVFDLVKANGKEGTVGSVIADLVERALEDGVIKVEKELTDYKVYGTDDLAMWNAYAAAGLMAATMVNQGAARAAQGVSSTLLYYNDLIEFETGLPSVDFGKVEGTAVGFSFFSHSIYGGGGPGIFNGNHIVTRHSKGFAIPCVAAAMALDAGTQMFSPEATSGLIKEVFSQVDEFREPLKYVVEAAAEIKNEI
Methyl-coenzyme M reductase (MCR-I), Ni(I)-MCRred1, sequence (P11562 2-249 limits assumed): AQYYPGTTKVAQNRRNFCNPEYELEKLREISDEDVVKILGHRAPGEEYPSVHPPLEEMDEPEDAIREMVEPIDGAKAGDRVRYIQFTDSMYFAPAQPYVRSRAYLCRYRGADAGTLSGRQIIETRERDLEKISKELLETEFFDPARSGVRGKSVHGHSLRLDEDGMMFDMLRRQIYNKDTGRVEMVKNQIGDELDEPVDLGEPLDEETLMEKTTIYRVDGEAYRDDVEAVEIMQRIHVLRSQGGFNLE

Row | SMILES | Kd [µM]
1 | CCCCS(=O)(=O)O [But-SO3] | 3300 ± 600
2 | C[C@@H](OP(=O)(O)O)[C@H](NC(=O)CCCCCSSCCS(=O)(=O)O)C(=O)O [CoMSSCoB6] | 105 ± 10.9
3 | C[C@@H](OP(=O)(O)O)[C@H](NC(=O)CCCCCCSSCCS(=O)(=O)O)C(=O)O [CoMSSCoB] | 57.4 ± 5.4
4 | CSCCS(=O)(=O)O [methyl-SCoM, S-methyl-2-mercaptoethane sulfonate] | 27.5 ± 7.3
